Assay results from patent US12259352B2, “Membrane enhanced sensors” (University Of Cincinnati, priority 2018, dated 2025).

Tests used:
[1] = cited from earlier work
[2] = Cortisol transport through hydrophobic barrier (track-etch membrane with castor oil) to electrochemical aptamer sensor, FIG. 6B; conditions: sensor solution hundreds of micrometers thick; track-etch membrane of 10% porosity filled with castor oil

Row | Structure (SMILES) | Solubility in Water (in words) [1] | concentration lag time (time for sensor solution to reach 90% of sample solution concentration) [2]
1 | CCCCC/C=C\C/C=C\C/C=C\C/C=C\CCCC(=O)O [Arachidonic Acid] | Negligible | –
2 | CCCCCC/C=C\CCCCCCCC(=O)O [Palmitoleic Acid] | Low | –
3 | C[C@]12CCC(=O)C=C1CC[C@@H]1[C@@H]2[C@@H](O)C[C@@]2(C)[C@H]1CC[C@]2(O)C(=O)CO [cortisol] | – | ~30 min
